Where two headings read alike, the source gives them in different places.
What was measured:
H524 and H69 cells = test: Colony formation assay; format: cell-based; settings: both cell lines; H524/H69: LB-100 2.5/20 μM, carboplatin 4/20 μM, etoposide 3/30 μM
Description: A Mann-Whitney U test was used for comparison between the normal and SCLC samples. FIG. 1B: IHC for PP2A was conducted on TMA tissue sections and images were captured at 4× or 20× using a 3D-Histech PANNORAMIC SCAN whole slide scanner (3D-Histech, Budapest, Hungary). […] TMAs were scored in normal (n=24) and tumor (n=79) cores on a scale from 0 (no staining/no protein expression) to 3+(strong staining/high protein expression). FIG. 1C: Summary bar graph of the average PP2A subunit staining. IHC staining intensity of normal and tumor cores. […] FIG. 1D: In order to compare the expression of PP2A subunits A and C, cell lysates from seven SCLC cell lines and HBEC 3KT (non-malignant cell line) were subjected to western blotting. FIG. 1E: PP2A activity was determined using a serine/threonine phosphatase activity assay (Millipore) after 24 h exposure to cantharidin (10 μM) and LB-100 (5 μM). […] The Cell Counting Kit-8 assay detected cell H524 and H69 cell viability. […] FIGS. 1I-1K: Graphs depict the mean+SEM of percent viability for cells (n=3). Colony formation assays were used to count the ability of H524 (FIGS. 11 and 1J) and H69 (FIGS. 1K and 1L) cells to form colonies. […] Representative images of colonies at 4× are shown under the graph (n=2).*p<0.05; **, p<0.01; *** p<0.001; ****, p<0.0001. Experiments were repeated in triplicate and representative data are shown.

H69 cells [1] = test: Transendothelial extravasation assay through HUVEC monolayer, H69; format: cell-based; settings: after 20 h of drug treatment
Description: FIGS. 3A-3H depict SCLC cell invasion through HUVEC monolayer. FIGS. 3A-3D: Graphical representation of H524/H69 cell ability to disrupt a confluent HUVEC monolayer using an electrical substrate-impedance sensing system. Arrows indicate time point when cells were added. Inserts show mean values and SD for each group after 20 h of drug treatment. After treatment, cell viability was counted using an Auto T4 Cell Counter (Nexcelom Cellometer). […] Whole cell Pt accumulation. Graphical representation of LB-100 effect on platinum uptake by SCLC cells. Cells were pretreated with LB-100 (H524—5 μM; H69—20 μM) overnight, then treated with carboplatin for one or four hours (H524—10 μM; H69—30 μM). Whole cell pellet was used for platinum (Pt) measurement. Values are normalized to total protein concentration. FIGS. 3E and 3F: Panels show mean values and SD of Pt accumulation for each group. […] Effect of LB-100 on PP2A expression and apoptosis regulatory proteins in H524 and H69 cells. […]
To discern the effect of LB100 on cell invasion, we tested the ability of SCLC cells to invade though a layer of endothelial cells (ECs). Toward this end, we measured the trans-endothelial monolayer resistance using an electrical substrate-impedance sensing system (Applied Biophysics, Troy, N.Y., USA), as previously described (24). […]

H524 cells = test: Seahorse XF Real-Time ATP rate assay, H524; format: cell-based; settings: LB100 2.5 μM, carboplatin 4 μM
Description: FIGS. 6A-6J depict ATP production rate in SCLC cells. FIG. 6A: H524 cells were treated with LB100 (2.5 μM), carboplatin (4 μM), or a combination, and ATP production rate was measured using the Agilent Seahorse XF Real Time ATP rate assay. mitoATP (mitochondrial) and glycoATP (glycolityc) rates were evaluated in H524 cells without and with drug treatments. […] FIG. 6B: Energetic map of H524 cells. After LB-100 and drug combination, cells became less glycolytic. FIGS. 6C-6E: The Agilent Seahorse XF pH sensor probe measures changes in the concentration of free protons, which corresponds to Extracellular Acidification Rate (ECAR). […] ATP level in cells was measured using the Agilent Seahorse XF Real Time ATP rate assay. […]
To elucidate the effect of the drugs on the glycolytic metabolism of H524 cells, we analyzed the proton efflux rate (PER). PER is calculated by subtracting acidification produced from mitochondrial CO2 production (Mitochondrial-derived CO2 can partially hydrate in the extracellular medium, resulting in additional extracellular acidification beyond that contributed by glycolysis) from total acidification or protons efflux (from both glycolysis and mitochondrial) into the extra cellular medium. […] To confirm that LB100 also affected glycolytic pathway in LB100-resistant cells, we measured PER in these cells. […]

H69 cells [2] = test: Seahorse XF Real-Time ATP rate assay, H69; format: cell-based; settings: LB-100 10 μM, carboplatin 10 μM
H526 cells = test: Cell Counting Kit-8 cytotoxicity, H526
Description: To determine specific cytotoxicity, we used Cell Counting Kit-8 (Dojindo Molecular Technologies, Rockville, Md.) as previously described (50).

Structure (SMILES) | colony formation (H524 and H69 cells) | % change of HUVEC barrier disruption (transmigration) (H69 cells [1]) [%] | reduction of total ATP production rate compared to untreated cells (H524 cells) [%] | drop of total ATP production rate (H69 cells [2]) [%] | IC50 (H526 cells; Homo sapiens, NCI-H526, 72 h, read-out: Cytotoxicity IC50, H526) [µM] | IC50 (H526 cells; read-out: Cytotoxicity IC50, H526, 72 hours) [µM]
C[NH+]1CCN(C(=O)C2C(C(=O)O)[C@H]3CC[C@@H]2O3)CC1 (stereo in doubt) [LB-100, 3-[(4-Methylpiperazin-1-yl)carbonyl]-7-oxabicyclo[2.2.1]heptane-2-carboxylic acid] | significantly reduced colony formation | 12.3 ± 0.92 | 73.7 | 54 | < 8 | 
N.N.O=C([O-])C1(C(=O)[O-])CCC1.[Pt+2] [Carboplatin, reference compound] | significantly reduced colony formation | 14.9 ± 1.24 | 36.3 | 12 |  | 33.2

From patent US20230065158A1, “OXABICYCLOHEPTANES FOR TREATMENT OF SMALL CELL LUNG CANCER” (Lixte Biotechnology, Inc., priority 2021, published 2023)
